Values after ≈ are worked out from the molar mass of the structure shown. Bridge positions count the residues as written; N and C are the ends. Square brackets hold non-standard residues; d marks the D form. Peptide text beside a SMILES is read from it. S5 = C=CCCC[C@](C)(N)C(=O)O
How the values were obtained:
[1] = system: Staphylococcus aureus; experiment: Antibacterial activity against Staphylococcus aureus ATCC 25923 assessed as inhibition of bacterial growth; assay type: functional
[2] = system: Klebsiella pneumoniae; experiment: Antibacterial activity against Klebsiella pneumoniae ATCC 13883 assessed as inhibition of bacterial growth; assay type: functional
[3] = system: Salmonella typhimurium; experiment: Antibacterial activity against Salmonella typhimurium clinical isolate assessed as inhibition of bacterial growth; assay type: functional, Salmonella enterica subsp. enterica serovar Typhimurium; settings: Salmonella enterica
[4] = system: Acinetobacter baumannii; experiment: Antibacterial activity against Acinetobacter baumannii ATCC 17978 assessed as inhibition of bacterial growth; assay type: functional
[5] = Retention time of compound by HPLC analysis; assay type: physicochemical
[6] = system: Escherichia coli; experiment: Antibacterial activity against Escherichia coli ATCC 25922 assessed as inhibition of bacterial growth; assay type: functional
[7] = system: Pseudomonas aeruginosa; experiment: Antibacterial activity against Pseudomonas aeruginosa ATCC 27853 assessed as inhibition of bacterial growth; assay type: functional
[8] = molecular target: T1, chymotrypsin (Homo sapiens, UniProt P17538+P40313+Q6GPI1+Q99895); experiment: Proteolytic stability of compound assessed as chymotrypsin (unknown origin) mediated drug degradation by measuring compound remaining after 4 hrs by HPLC analysis; assay type: ADME, protein assay; settings: read-out: Stability
[9] = Cytotoxicity against mouse RAW264.7 cells; assay type: toxicity, cell-based
[10] = molecular target: T1, chymotrypsin; experiment: Proteolytic stability of compound assessed as chymotrypsin (unknown origin) mediated drug degradation measured within 4 hrs by HPLC analysis; assay type: ADME, protein assay; settings: read-out: Drug degradation
[11] = system: Escherichia coli; experiment: Potency index, ratio of Chem-KVL MIC to test compound MIC for antibacterial activity against Escherichia coli ATCC 25922; assay type: functional
[12] = system: Pseudomonas aeruginosa; experiment: Potency index, ratio of Chem-KVL MIC to test compound MIC for antibacterial activity against Pseudomonas aeruginosa ATCC 27853; assay type: functional
[13] = system: Staphylococcus aureus; experiment: Potency index, ratio of Chem-KVL MIC to test compound MIC for antibacterial activity against Staphylococcus aureus ATCC 25923; assay type: functional

Molecule | MIC [1] [µg/mL] | MIC [2] [µg/mL] | MIC [3] [µg/mL] | MIC [4] [µg/mL] | Time [5] [min] | MIC [6] [µg/mL] | MIC [7] [µg/mL] | remaining at 4 h [8] [%] | IC50 [9] [µg/mL] | metabolised at 4 h [10] [%] | Ratio [11] | Ratio [12] | Ratio [13]
CC(=O)N[C@@H](CCCCN)C(=O)N[C@H](C(=O)N[C@@H](CC(C)C)C(=O)NCC(=O)N[C@@H](CCCNC(=N)N)C(=O)N[C@@H](CC(C)C)C(=O)N[C@H](C(=O)N[C@@H](CCCCN)C(=O)N[C@H](C(=O)N[C@@]1(C)CCC/C=C\CCC[C@@](C)(C(N)=O)NC(=O)[C@H](CC(C)C)NC(=O)[C@H](CCCNC(=N)N)NC(=O)CNC1=O)C(C)C)C(C)C)C(C)C (Ac-KVLGRLVKV[S5]GRL[S5]-NH2; staple (Z) 10-14) | 4 (≈ 2.46 µM) | 64 (≈ 39.3 µM) | 64 (≈ 39.3 µM) | 32 (≈ 19.6 µM) | 28.3 | 32 (≈ 19.6 µM) | 8 (≈ 4.91 µM) |  |  |  |  |  | 
CC(=O)N[C@@H](CCCCN)C(=O)N[C@H](C(=O)N[C@@H](CC(C)C)C(=O)NCC(=O)N[C@@H](CCCNC(=N)N)C(=O)N[C@@H](CC(C)C)C(=O)N[C@H](C(=O)N[C@@H](CCCCN)C(=O)N[C@@]1(C)CCC/C=C\CCC[C@@](C)(C(=O)N[C@H](C(N)=O)C(C)C)NC(=O)[C@H](CCCNC(=N)N)NC(=O)CNC(=O)[C@H](CC(C)C)NC1=O)C(C)C)C(C)C (Ac-KVLGRLVK[S5]LGR[S5]V-NH2; staple (Z) 9-13) | 8 (≈ 4.91 µM) | 64 (≈ 39.3 µM) | 64 (≈ 39.3 µM) | 32 (≈ 19.6 µM) | 27.9 | 32 (≈ 19.6 µM) | 4 (≈ 2.46 µM) |  |  |  |  |  | 
CC(=O)N[C@@H](CCCCN)C(=O)N[C@H](C(=O)N[C@@H](CC(C)C)C(=O)NCC(=O)N[C@@H](CCCNC(=N)N)C(=O)N[C@@H](CC(C)C)C(=O)N[C@@]1(C)CCC/C=C\CCC[C@@](C)(C(=O)N[C@@H](CCCNC(=N)N)C(=O)N[C@@H](CC(C)C)C(=O)N[C@H](C(N)=O)C(C)C)NC(=O)[C@H](CC(C)C)NC(=O)[C@H](C(C)C)NC(=O)[C@H](CCCCN)NC1=O)C(C)C (Ac-KVLGRL[S5]KVL[S5]RLV-NH2; staple (Z) 7-11) | 16 (≈ 9.49 µM) | > 64 | > 64 | > 64 | 30.6 | > 64 | 32 (≈ 19 µM) |  |  |  |  |  | 
CC(=O)N[C@@H](CCCCN)C(=O)N[C@H](C(=O)N[C@@H](CC(C)C)C(=O)NCC(=O)N[C@@H](CCCNC(=N)N)C(=O)N[C@@]1(C)CCC/C=C\CCC[C@@](C)(C(=O)NCC(=O)N[C@@H](CCCNC(=N)N)C(=O)N[C@@H](CC(C)C)C(=O)N[C@H](C(N)=O)C(C)C)NC(=O)[C@H](C(C)C)NC(=O)[C@H](CCCCN)NC(=O)[C@H](C(C)C)NC1=O)C(C)C (Ac-KVLGR[S5]VKV[S5]GRLV-NH2; staple (Z) 6-10) | 2 (≈ 1.24 µM) | 64 (≈ 39.6 µM) | 64 (≈ 39.6 µM) | 16 (≈ 9.91 µM) | 26.5 | 32 (≈ 19.8 µM) | 4 (≈ 2.48 µM) | > 70 | 2.95 (≈ 1.83 µM) |  |  |  | 
CC(=O)N[C@@H](CCCCN)C(=O)N[C@H](C(=O)N[C@@H](CC(C)C)C(=O)NCC(=O)N[C@@]1(C)CCC/C=C\CCC[C@@](C)(C(=O)N[C@@H](CC(C)C)C(=O)NCC(=O)N[C@@H](CCCNC(=N)N)C(=O)N[C@@H](CC(C)C)C(=O)N[C@H](C(=O)O)C(C)C)NC(=O)[C@H](CCCCN)NC(=O)[C@H](C(C)C)NC(=O)[C@H](CC(C)C)NC1=O)C(C)C (Ac-KVLG[S5]LVK[S5]LGRLV-OH; staple (Z) 5-9) | 4 (≈ 2.52 µM) | > 64 | > 64 | 64 (≈ 40.3 µM) | 30.8 | 64 (≈ 40.3 µM) | 4 (≈ 2.52 µM) |  |  |  |  |  | 
CC(=O)N[C@@H](CCCCN)C(=O)N[C@H](C(=O)N[C@@]1(C)CCC/C=C\CCC[C@@](C)(C(=O)N[C@@H](CCCCN)C(=O)N[C@H](C(=O)N[C@@H](CC(C)C)C(=O)NCC(=O)N[C@@H](CCCNC(=N)N)C(=O)N[C@@H](CC(C)C)C(=O)N[C@H](C(N)=O)C(C)C)C(C)C)NC(=O)[C@H](CC(C)C)NC(=O)[C@H](CCCNC(=N)N)NC(=O)CNC1=O)C(C)C (Ac-KV[S5]GRL[S5]KVLGRLV-NH2; staple (Z) 3-7) | 4 (≈ 2.46 µM) | > 64 | > 64 | 64 (≈ 39.3 µM) | 27.1 | 64 (≈ 39.3 µM) | 16 (≈ 9.82 µM) |  |  |  |  |  | 
CC(=O)N[C@@H](CCCCN)C(=O)N[C@@]1(C)CCC/C=C\CCC[C@@](C)(C(=O)N[C@H](C(=O)N[C@@H](CCCCN)C(=O)N[C@H](C(=O)N[C@@H](CC(C)C)C(=O)NCC(=O)N[C@@H](CCCNC(=N)N)C(=O)N[C@@H](CC(C)C)C(=O)N[C@H](C(N)=O)C(C)C)C(C)C)C(C)C)NC(=O)[C@H](CCCNC(=N)N)NC(=O)CNC(=O)[C@H](CC(C)C)NC1=O (Ac-K[S5]LGR[S5]VKVLGRLV-NH2; staple (Z) 2-6) | 8 (≈ 4.91 µM) | 32 (≈ 19.6 µM) | 32 (≈ 19.6 µM) | 16 (≈ 9.82 µM) | 27.3 | 16 (≈ 9.82 µM) | 4 (≈ 2.46 µM) |  | 4.11 (≈ 2.52 µM) | 100 |  |  | 
Ac-AVLGRLVKVLGRLV-NH2 | 16 | > 64 | > 64 | > 64 | 27.8 | > 64 | 64 |  |  |  |  |  | 
Ac-KALGRLVKVLGRLV-NH2 | 32 | 32 | 16 | 16 | 24.4 | 8 | 64 |  |  |  |  |  | 
Ac-KVAGRLVKVLGRLV-NH2 | > 64 | > 64 | 64 | > 64 | 22.4 | 64 | > 64 |  |  |  |  |  | 
Ac-KVLARLVKVLGRLV-NH2 | 4 | 64 | 64 | 32 | 26.8 | 32 | 32 |  |  |  |  |  | 
Ac-KVLGALVKVLGRLV-NH2 | 8 | 32 | 64 | 32 | 28.4 | 32 | 16 |  |  |  |  |  | 
Ac-KVLGRAVKVLGRLV-NH2 | > 64 | > 64 | 64 | > 64 | 22.3 | > 64 | > 64 |  |  |  |  |  | 
Ac-KVLGRLAKVLGRLV-NH2 | 32 | 64 | 16 | 32 | 24.5 | 8 | 64 |  |  |  |  |  | 
Ac-KVLGRLVAVLGRLV-NH2 | 16 | 64 | > 64 | > 64 | 27.4 | 64 | 64 |  |  |  |  |  | 
Ac-KVLGRLVKALGRLV-NH2 | > 64 | > 64 | 64 | > 64 | 25.2 | > 64 | > 64 |  |  |  |  |  | 
Ac-KVLGRLVKVAGRLV-NH2 | > 64 | > 64 | 64 | > 64 | 22 | > 64 | > 64 |  |  |  |  |  | 
Ac-KVLGRLVKVLARLV-NH2 | 8 | 16 | 32 | 16 | 27.4 | 16 | 8 |  |  |  | 2 | 2 | 2
Ac-KVLGRLVKVLGALV-NH2 | 32 | > 64 | > 64 | > 64 | 27 | > 64 | 16 |  |  |  |  |  | 
Ac-KVLGRLVKVLGRAV-NH2 | > 64 | > 64 | 32 | 64 | 22.7 | > 64 | > 64 |  |  |  |  |  | 
Ac-KVLGRLVKVLGRLA-NH2 | 64 | 64 | 32 | 32 | 24.2 | 16 | > 64 |  |  |  |  |  | 
Ac-KVLGRLVKVLGRLV-NH2 | 16 | 16 | 32 | 16 | 25.1 | 32 | 32 |  | 3.7 | 100 |  |  | 

From ChEMBL document CHEMBL5550148, “Systematic alanine and stapling mutational analysis of antimicrobial peptide Chem-KVL” (Bioorg Med Chem Lett, 2024)
